Data published in US3955959A, “Herbicide for use in transplanted rice” (priority 1974, dated 1976).

Legend:
[1] = tested on: Echinochloa crusgalli and Monochoria vaginalis; experiment: Example 2 field test, overall; format: in vivo
Source text: (§1) Rice seedlings (ordinary) of Tainan No. 5 variety (japonica) were transplanted at 19 days of growth. Granular formulations of Herbicides A and B were applied at the 1 leaf stage of grass weed (4 DAT) and 2.5 leaf stage of grass weed (10 DAT).

[2] = tested on: direct-seeded rice plants; details: 1.0 lb/ac and 0.25 lb/ac; '620 and '945 Table I; cited from earlier work
[3] = tested on: Dapog transplanted rice; experiment: Example 3 field test, crop injury; details: for Crop Injury (%): obs. 42 DAT
Procedure: In the tests described in the tables below, the herbicides were formulated and used in granular form in conventional manner. […] The commercial herbicide used was a granular product having 5% active ingredient.
In the field tests of the herbicide of this invention with transplanted rice, the rice seedlings were grown in conventional manner, by seeding the rice in a typical seedbed of sandy loam to clay soil of the country wherein the test was conducted. For laboratory and greenhouse work the seedlings were obtained by seeding rice in a mixture of soil, e.g., Ray silt loam, and peat in wood flats. For purposes of testing the herbicides on younger rice seedlings (infant or Dapog) the rice was usually allowed to grow for 6-15 days before lifting for transplanting. Older (ordinary) rice plants were usually grown for a period of about 2-3 weeks, or as much as about 7 weeks before lifting. Since the period of growth is dependent upon climatic conditions, a better measure of when to transplant the rice seedling is the leaf stage of growth; for infant or Dapog rice the seedling is lifted at the 1.5-2 leaf stage of growth, and for ordinary seedlings at the 2.5-5 leaf stage. The seedlings were then transplanted to the test plots for evaluation of the herbicide for injury against weed species present with the transplanted rice. The herbicides were then applied to the growth medium of the weeds and transplant rice, either preemergent or postemergent with respect to the weeds and postemergent with respect to the transplanted rice. Application times are designated in the tables as "DAT", meaning "days after transplant". Application rates given in the tables refer to the amount of active ingredient used.
Eleven (11) day-old Dapog seedlings were transplanted and treated at 5 DAT and 14 DAT with Herbicides A and B. The plots were overseeded with Echinochloa crusgalli seeds at 2 kgs/ha prior to transplanting. Treatments were replicated four times.

[4] = tested on: carp; experiment: Example 10 fish toxicity, Japanese protocol; format: in vivo
Procedure: In view of the importance of fish toxicological considerations, tests were conducted, using carp according to the Japanese protocol, to compare toxicity data for Herbicides A and B; results of those tests are shown in Table 10.

[5] = tested on: pigweed, annual morning glory, smartweed, cocklebur, Italian ryegrass, crop rye, sorghum, quack grass and nutsedge; experiment: Example 9 soil life bioassay, greenhouse; format: in vivo; details: for Soil Longevity: 5 lbs/Ac (5.605 kg/ha), Ray silt loam
Procedure: In this example, additional tests were run to compare the relative soil life of Herbicides A and B under greenhouse conditions.
In the soil life tests, a standardized procedure involving a series of bioassay periods, or cycles, was used. In the procedure, an arbitrary, selected mixture of four grasses, four broadleaf weeds and a sedge were seeded into Ray silt loam soil previously prepared and treated with the herbicide under test and periodically watered by sub-irrigation. After a six-week bioassay period, (i.e., the first cycle), the plants were evaluated visually for herbicidal activity. That soil in which at least 75% of three or more grass and/or broadleaf species or of the sedge alone were controlled at the end of the cycle, was advanced to a second cycle, or six-week bioassay period. The second cycle involved the same procedure as the first cycle, except that additionally, the equivalent of 50 lbs/ac (56.05 Kgs/ha) of nitrogen was mixed into the cover layer of the soil which was reseeded with the mixture of plants mentioned earlier. The plants were evaluated for herbicidal activity at the end of this six-week period and, again, the soil in which at least 75% of the grasses or broadleaf species or of the sedge alone were controlled was advanced to a third cycle. The foregoing procedure was repeated until herbicidal activity fell below that required for initiation of a new cycle.
For purposes of the soil life tests, the following spectrum of plants were used as indicators: pigweed, annual morning glory, smartweed, cocklebur, Italian ryegrass, crop rye, sorghum, quack grass and nutsedge.

[6] = tested on: Ce (Cyperus esculentus); experiment: Example 7 greenhouse preemergence activity; format: in vivo
Procedure: In a further comparative study of the preemergence activity of Herbicides A and B, a variety of weeds and upland direct-seeded rice were tested under greenhouse conditions. The present invention is not concerned with the use of Herbicide A in direct-seeded rice. The primary purpose of the experimental work in this example is to compare relative herbicidal activity of Herbicides A and B against the weeds shown in Table 7; most of these weeds were not available for tests with transplanted rice. Although the relative selectivity of these herbicides in upland rice is also evident, that aspect of the tests is more or less incidental to the purpose of this example.
In this example, rice seeds and seeds of the weeds shown in Table 7 were sown in Ray silt loam soil at a depth of 0.5 inch (1.27 cm) in containers for the soil in a greenhouse. Herbicides A and B were applied to the surface of the soil at a spray volume equivalent to 20 gals/acre (187.1 liters/hectare), followed by 0.5 in (1.27 cm) of overhead irrigation. Temperature and relative humidity in the greenhouse were on the order of 85°F (29°C) and 75%, respectively. Observations were made at 21-28 days after seeding.
In Table 7 are shown the average rates of herbicide required to cause a growth reduction of 85% of the weeds ("GR85 "), and the average rate of herbicide required to cause a growth reduction of 15% ("GR15 ") of the rice plants (Oryza sativa, "Os", variety Bluebelle).

[7] = tested on: Ec (Echinochloa crusgalli); experiment: Example 8 residual weed control, JAAPR, Japan; format: in vivo; details: Table 8 (Ec and Ri)
Procedure: This example describes the results of tests conducted at the JAAPR Laboratory in Japan to determine the comparative residual effect of Herbicide A vis-a-vis that of commercial rice herbicides in Japan.
In the tests according to this example, the test weed species Echinochloa crusgalli (Ec) and Rotala indica (Ri), were grown in clay loam soil having 2.3% organic matter and a percolation rate of 3 cm/day for 2 days. Herbicide A was applied to the weeds at an expected use rate of about 0.67-1.34 lbs/ac (0.75-1.5 kgs/ha) and the commercial rice herbicides, whose active ingredients are identified below, were applied at their indicated expected use rates: […]

[8] = tested on: Cyperus difformis; experiment: Example 2 field test, weed control, Chia Yi, Taiwan; format: in vivo; details: obs. 63 DAT
Procedure: In the field tests of the herbicide of this invention with transplanted rice, the rice seedlings were grown in conventional manner, by seeding the rice in a typical seedbed of sandy loam to clay soil of the country wherein the test was conducted. For laboratory and greenhouse work the seedlings were obtained by seeding rice in a mixture of soil, e.g., Ray silt loam, and peat in wood flats. For purposes of testing the herbicides on younger rice seedlings (infant or Dapog) the rice was usually allowed to grow for 6-15 days before lifting for transplanting. Older (ordinary) rice plants were usually grown for a period of about 2-3 weeks, or as much as about 7 weeks before lifting. Since the period of growth is dependent upon climatic conditions, a better measure of when to transplant the rice seedling is the leaf stage of growth; for infant or Dapog rice the seedling is lifted at the 1.5-2 leaf stage of growth, and for ordinary seedlings at the 2.5-5 leaf stage. The seedlings were then transplanted to the test plots for evaluation of the herbicide for injury against weed species present with the transplanted rice. The herbicides were then applied to the growth medium of the weeds and transplant rice, either preemergent or postemergent with respect to the weeds and postemergent with respect to the transplanted rice. […] Application rates given in the tables refer to the amount of active ingredient used.
as §1

[9] = tested on: Ek (Eleocharis kuroguwai); experiment: Other tests, perennial control; format: in vivo

SMILES: CCCCOCN(C(=O)CCl)c1c(C)cccc1C(C)(C)C [Herbicide A, n-(butoxymethyl)-6'-tert-butyl-2-chloro-o-acetotoluidide]
- period of application vs Herbicide B ([1]; Example 2): could be applied over a longer period of time
- fold more active than Herbicide B ([1]; control of Echinochloa crusgalli and Monochoria vaginalis): 3-6 fold
- phytotoxicity to direct-seeded rice [2]: severe phytotoxicity
- Crop Injury (%) ([3]; 5 DAT, 1.0 kg/ha): 40%
- Crop Injury (%) ([3]; 5 DAT, 2.0 kg/ha): 50%
- Crop Injury (%) ([3]; 5 DAT, .25 kg/ha): 0%
- Crop Injury (%) ([3]; 5 DAT, .5 kg/ha): 0%
- Crop Injury (%) ([3]; 14 DAT, 1.0 kg/ha): 0%
- Crop Injury (%) ([3]; 14 DAT, 2.0 kg/ha): 80%
- Crop Injury (%) ([3]; 14 DAT, .25 kg/ha): 0%
- Crop Injury (%) ([3]; 14 DAT, .5 kg/ha): 0%
- rice injury in words ([3]; higher rates, 5 DAT): considerable rice injury
- toxicity to carp relative to Herbicide B ([4]; equal concentration basis): about one-half
- toxicity in the field relative to Herbicide B ([4]; taking expected use rate one-third of B): about one-sixth
- Soil Longevity [5]: 29 Weeks
- residual preemergence activity longer than Herbicide B ([5]; equal rates, 5 lbs/Ac): about 50%
- resistance of Ce [6]: resistant
- residual activity [7]: over 30 days
- % Weed Control (Cyperus difformis) ([8]; 4 DAT, 1.0 kg/ha): 100%
- % Weed Control (Cyperus difformis) ([8]; 4 DAT, 2.0 kg/ha): 100%
- % Weed Control (Cyperus difformis) ([8]; 4 DAT, .25 kg/ha): 100%
- % Weed Control (Cyperus difformis) ([8]; 4 DAT, .5 kg/ha): 100%
- % Weed Control (Cyperus difformis) ([8]; 10 DAT, 1.0 kg/ha): 100%
- % Weed Control (Cyperus difformis) ([8]; 10 DAT, 2.0 kg/ha): 100%
- % Weed Control (Cyperus difformis) ([8]; 10 DAT, .25 kg/ha): 100%
- % Weed Control (Cyperus difformis) ([8]; 10 DAT, .5 kg/ha): 100%
- control of perennial Ek [9]: fair to good

SMILES: CCCCOCN(C(=O)CCl)c1c(CC)cccc1CC [Herbicide B, n-(butoxymethyl)-2',6'-diethyl-2-chloroacetanilide, reference compound]
- Crop Injury (%) ([3]; 5 DAT, 1.0 kg/ha): 0%
- Crop Injury (%) ([3]; 5 DAT, 1.5 kg/ha): 0%
- Crop Injury (%) ([3]; 5 DAT, 3.0 kg/ha): 0%
- Crop Injury (%) ([3]; 14 DAT, 1.0 kg/ha): 0%
- Crop Injury (%) ([3]; 14 DAT, 1.5 kg/ha): 0%
- Crop Injury (%) ([3]; 14 DAT, 3.0 kg/ha): 0%
- Soil Longevity [5]: 20 Weeks
- resistance of Ce [6]: resists
- % Weed Control (Cyperus difformis) ([8]; 4 DAT, 1.0 kg/ha): 100%
- % Weed Control (Cyperus difformis) ([8]; 4 DAT, 1.5 kg/ha): 100%
- % Weed Control (Cyperus difformis) ([8]; 4 DAT, 3.0 kg/ha): 100%
- % Weed Control (Cyperus difformis) ([8]; 10 DAT, 1.0 kg/ha): 100%
- % Weed Control (Cyperus difformis) ([8]; 10 DAT, 1.5 kg/ha): 100%
- % Weed Control (Cyperus difformis) ([8]; 10 DAT, 3.0 kg/ha): 100%
